Measured values from patent US7902175B2, “Aminopropanol derivatives” (Novartis AG, priority 2003, dated 2011).
Values belong to the molecule of their own block, whether it stands above or below them.

What was measured:
[1] = biological target: T1, S1P-4 (Homo sapiens, UniProt O95977); assay: GTPγS binding assay using S1P receptor/HEK293 membrane preparations; format: biochemical; conditions: for EC50: GTPγS binding, transiently transfected HEK293 membranes
T1 construct: expressed in transfected cells; host or cells: HEK293 (transient, calcium phosphate); crude membranes
T1 sequence (O95977 1-384): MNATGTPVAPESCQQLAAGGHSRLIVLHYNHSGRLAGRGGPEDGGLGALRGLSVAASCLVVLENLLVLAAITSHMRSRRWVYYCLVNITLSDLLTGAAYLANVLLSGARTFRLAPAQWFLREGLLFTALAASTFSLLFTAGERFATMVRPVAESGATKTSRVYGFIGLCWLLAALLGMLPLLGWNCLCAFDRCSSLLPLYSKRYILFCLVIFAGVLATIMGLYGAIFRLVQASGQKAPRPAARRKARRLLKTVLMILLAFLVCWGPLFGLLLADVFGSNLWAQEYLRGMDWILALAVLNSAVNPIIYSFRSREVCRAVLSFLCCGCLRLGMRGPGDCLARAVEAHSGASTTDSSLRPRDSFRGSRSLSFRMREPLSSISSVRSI
Excerpt: (§1) The compounds of the invention have binding affinity to individual human S1P receptors as determined in following assays:
(§2) Transient Transfection of Human S1P Receptors into HEK293 Cells
(§3) S1P receptors and Gi proteins are cloned, and equal amounts of 4 cDNAs for the S1P receptor, Gi-α, Gi-β and Gi-γ are mixed and used to transfect monolayers of HEK293 cells using the calcium phosphate precipitate method (M. Wigler et al., Cell. 1977; 11; 223 and DS. Im et al., Mol. Pharmacol. 2000; 57; 753). Briefly, a DNA mixture containing 25 μg of DNA and 0.25 M CaCl is added to HEPES-buffered 2 mM Na2HPO4. Subconfluent monolayers of HEK293 cells are poisoned with 25 […], and the DNA precipitate is then applied to the cells. After 4 h, the monolayers are washed with phosphate-buffered saline and refed media (90% 1:1 Dulbecco's modified essential media (DMEM):F-12+10% fetal bovine serum). The cells are harvested 48-72 h after addition of the DNA by scraping in HME buffer (in mM: 20 HEPES, 5 MgCl2, 1 EDTA, pH 7.4) containing 10% sucrose on ice, and disrupted using a Dounce homogenizer. After centrifugation at 800×g, the supernatant is diluted with HME without sucrose and centrifuged at 100,000×g for 1 h. The resulting pellet is rehomogenized and centrifuged a second hour at 100,000×g. This crude membrane pellet is resuspended in HME with sucrose, aliquoted, and snap-frozen by immersion in liquid nitrogen. The membranes are stored at […] Protein concentration is determined spectroscopically by Bradford protein assay.
(§4) GTPγS Binding Assay Using S1P Receptor/HEK293 Membrane Preparations
(§5) GTPγS binding experiments are performed as described by D S. Im et al., Mol. Pharmacol. 2000; 57:753. Ligand-mediated GTPγS binding to G-proteins is measured in GTP binding buffer (in mM: 50 HEPES, 100 NaCl, 10 MgCl2, pH 7.5) using 25 μg of a membrane preparation from transiently transfected HEK293 cells. Ligand is added to membranes in the presence of 10 μM GDP and 0.1 nM [^35S]GTPγS (1200 Ci/mmol) and incubated at 30° C. for 30 min. Bound GTPγS is separated from unbound using the Brandel harvester (Gaithersburg, Md.) and counted with a liquid scintillation counter.

[2] = system: human S1P receptors; assay: GTPγS binding assay, S1P receptors in general; format: biochemical
Excerpt: as §1, §2
S1P receptors and Gi proteins are cloned, and equal amounts of 4 cDNAs for the S1P receptor, Gi-α, Gi-β and Gi-γ are mixed and used to transfect monolayers of HEK293 cells using the calcium phosphate precipitate method (M. Wigler et al., Cell. 1977; 11; 223 and DS. Im et al., Mol. Pharmacol. 2000; 57; 753). Briefly, a DNA mixture containing 25 μg of DNA and 0.25 M CaCl is added to HEPES-buffered 2 mM Na2HPO4. Subconfluent monolayers of HEK293 cells are poisoned with 25 […], and the DNA precipitate is then applied to the cells. […] Protein concentration is determined spectroscopically by Bradford protein assay. […]
as §5, with “Ligand is added to membranes in the presence of 10 μM GDP and 0.1 nM [^35S]GTPγS (1200 Ci/mmol) and incubated at 30° C. for 30 min.” left out

[3] = biological target: T2, S1P-3 (Homo sapiens, UniProt Q99500); assay: GTPγS binding assay using S1P receptor/HEK293 membrane preparations; format: biochemical
T2 construct: expressed in transfected cells; host or cells: HEK293 (transient, calcium phosphate); crude membranes
T2 sequence (Q99500 whole entry): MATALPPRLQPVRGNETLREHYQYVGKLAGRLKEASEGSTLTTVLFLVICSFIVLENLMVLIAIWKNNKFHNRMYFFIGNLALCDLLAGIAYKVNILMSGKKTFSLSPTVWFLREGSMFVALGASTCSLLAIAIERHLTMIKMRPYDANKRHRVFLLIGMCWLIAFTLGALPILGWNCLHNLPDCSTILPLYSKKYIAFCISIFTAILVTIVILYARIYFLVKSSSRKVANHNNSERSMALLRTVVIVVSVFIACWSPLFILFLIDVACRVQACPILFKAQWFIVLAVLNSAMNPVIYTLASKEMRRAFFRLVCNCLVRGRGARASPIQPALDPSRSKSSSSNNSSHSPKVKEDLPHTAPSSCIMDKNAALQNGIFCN
Procedure: as §2, §3, §4, §5

[4] = biological target: T3, S1P-5 (Homo sapiens, UniProt Q9H228); assay: as above; format: biochemical
T3 construct: expressed in transfected cells; host or cells: HEK293 (transient, calcium phosphate); crude membranes
T3 sequence (Q9H228 whole entry): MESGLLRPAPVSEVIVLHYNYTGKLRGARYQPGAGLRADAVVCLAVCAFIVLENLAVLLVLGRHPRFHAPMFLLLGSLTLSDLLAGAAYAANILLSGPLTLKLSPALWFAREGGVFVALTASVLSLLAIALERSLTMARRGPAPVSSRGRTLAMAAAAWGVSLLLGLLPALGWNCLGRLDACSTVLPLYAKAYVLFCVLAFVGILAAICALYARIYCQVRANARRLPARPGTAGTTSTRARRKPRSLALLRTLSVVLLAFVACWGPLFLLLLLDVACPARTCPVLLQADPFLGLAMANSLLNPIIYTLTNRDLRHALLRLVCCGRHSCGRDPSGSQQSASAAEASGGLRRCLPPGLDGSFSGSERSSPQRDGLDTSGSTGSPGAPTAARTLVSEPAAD
Procedure: as §2
as §3, with “Briefly,” for “S1P receptors and Gi proteins are cloned, and equal amounts of 4 cDNAs for the S1P receptor, Gi-α, Gi-β and Gi-γ are mixed and used to transfect monolayers of HEK293 cells using the calcium phosphate precipitate method (M. Wigler et al., Cell. 1977; 11; 223 and DS. Im et al., Mol. Pharmacol. 2000; 57; 753). Briefly,”
as §4
as §5, with “Ligand-mediated” for “GTPγS binding experiments are performed as described by D S. Im et al., Mol. Pharmacol. 2000; 57:753. Ligand-mediated”

[5] = biological target: T4, S1P-1 (Homo sapiens, UniProt P21453); assay: as above; format: biochemical
T4 construct: expressed in transfected cells; host or cells: HEK293 (transient, calcium phosphate); crude membranes
T4 sequence (P21453 whole entry): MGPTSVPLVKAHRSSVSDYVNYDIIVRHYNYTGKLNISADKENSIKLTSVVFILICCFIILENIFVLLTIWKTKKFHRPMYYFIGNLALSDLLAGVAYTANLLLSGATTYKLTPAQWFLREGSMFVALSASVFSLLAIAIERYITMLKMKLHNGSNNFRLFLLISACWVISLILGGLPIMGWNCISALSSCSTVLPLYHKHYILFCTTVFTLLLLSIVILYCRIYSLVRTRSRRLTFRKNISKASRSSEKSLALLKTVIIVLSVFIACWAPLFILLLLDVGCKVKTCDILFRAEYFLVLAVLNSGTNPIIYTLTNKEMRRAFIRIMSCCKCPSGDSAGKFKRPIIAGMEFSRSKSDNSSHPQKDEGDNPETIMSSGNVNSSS
Procedure: as §2
as §3, with “Briefly,” for “S1P receptors and Gi proteins are cloned, and equal amounts of 4 cDNAs for the S1P receptor, Gi-α, Gi-β and Gi-γ are mixed and used to transfect monolayers of HEK293 cells using the calcium phosphate precipitate method (M. Wigler et al., Cell. 1977; 11; 223 and DS. Im et al., Mol. Pharmacol. 2000; 57; 753). Briefly,”
as §4
as §5, with “Ligand-mediated” for “GTPγS binding experiments are performed as described by D S. Im et al., Mol. Pharmacol. 2000; 57:753. Ligand-mediated”

[6] = biological target: T5, S1P-2 (Homo sapiens, UniProt O95136); assay: as above; format: biochemical; conditions: transiently transfected HEK293 membranes
T5 construct: expressed in transfected cells; host or cells: HEK293 (transient, calcium phosphate); crude membranes
T5 sequence (O95136 whole entry): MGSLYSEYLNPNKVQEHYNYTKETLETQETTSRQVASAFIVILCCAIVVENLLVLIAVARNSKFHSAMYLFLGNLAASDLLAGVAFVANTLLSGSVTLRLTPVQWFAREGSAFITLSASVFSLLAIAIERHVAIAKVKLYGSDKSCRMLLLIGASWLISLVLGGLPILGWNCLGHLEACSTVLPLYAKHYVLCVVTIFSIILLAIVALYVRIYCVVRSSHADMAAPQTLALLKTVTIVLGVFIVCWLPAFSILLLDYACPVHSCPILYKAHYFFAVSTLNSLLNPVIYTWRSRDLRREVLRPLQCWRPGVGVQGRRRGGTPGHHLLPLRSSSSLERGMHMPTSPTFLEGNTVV
Procedure: as §2, §3, §4, §5

[7] = Chiral HPLC determination of FTY720-phosphate enantiomers in blood after dosing 14C-labeled FTY720; format: in vivo; conditions: rats, orally 7.5 mg/kg or intravenous infusion 4 mg/kg; blood e.g. 3 or 72 hours after dosing
Excerpt: In a further aspect, the present invention provides a method of determining the amount of the R and/or S isomers of a compound of formula II present in a sample, comprising (a) reacting the compound of formula II present in the sample with benzene-1,2-dicarbaldehyde to form a compound of formula I, and separating the R and S isomers of the compound of formula I by HPLC. The HPLC is preferably performed as described above, using a chiral ion-exchange phase e.g. based on quinine carbamate or quinidine carbamate. The compounds of formula I are useful as intermediates in such a method. The sample may be e.g. a sample derived from a bodily fluid e.g. blood, plasma, saliva, or urine, and may be first subjected to one or more separation steps, (e.g. extraction with methanol and/or non-chiral HPLC) in order to separate the compound of formula II from the fluid. By such a method the amount of the active R or S enantiomer in the sample may be determined. […]
For example, achiral 14C-labeled FTY720 is administered to rats either orally (7.5 mg/kg) or by intravenous infusion (4 mg/kg). […] The derivative is spiked with unlabelled OPA-derivatized R and S FTY720-phosphate as retention time markers (monitored by UV at 215 nm) and subjected to chiral HPLC separation using a ProntoSIL Chiral AX QN-1 column.

[8] = GTPγS binding, transiently transfected HEK293 membranes

EC50 [1]: 80.1 nM
agonistic effects on S1P receptors [2]: only at very high concentrations
Structure (SMILES): CCCCCCCCc1ccc(CCC(N)(CO)COP(=O)(O)O)cc1 (single isomer, unassigned) [(R)-FTY720-P, phosphoric acid mono-[2-amino-2-hydroxymethyl-4-(4-octyl-phenyl)-butyl]ester]

agonist character on S1P3 ([3]; in the low nanomolar range): full agonist
agonist character on S1P5 ([4]; in the low nanomolar range): partial agonist
agonist character on S1P1 ([5]; in the low nanomolar range): full agonist
EC50 [1]: 0.75 nM
agonist character on S1P4 ([1]; in the low nanomolar range): partial agonist
Structure (SMILES): CCCCCCCCc1ccc(CCC(N)(CO)COP(=O)(O)O)cc1 (single isomer, unassigned) [(S)-FTY720-P, phosphoric acid mono-[2-amino-2-hydroxymethyl-4-(4-octyl-phenyl)-butyl]ester]

EC50 [6]: > 10000 nM
EC50 [3, 8]: 140 nM
EC50 [4, 8]: 7.7 nM
EC50 [5, 8]: 0.4 nM
EC50 [1]: 6.6 nM
Structure (SMILES): N[C@@](CO)(CCc1ccc(OCCc2ccc(C(F)(F)F)cc2)cc1)COP(=O)(O)O [Ex. 14, Phosphoric Acid mono-((R)-2-amino-2-hydroxymethyl-4-{4-[2-(4-trifluoromethyl-phenyl)-ethoxy]-phenyl}-butyl)ester]

R-enantiomer of [14C]FTY720-phosphate in blood [7]: not detectable
Structure (SMILES): CCCCCCCCc1ccc(CCC(N)(CO)CO)cc1 [FTY720, 2-amino-2-[2-(4-octylphenyl)ethyl]propane-1,3-diol]
enantiomer of the metabolite [14C]FTY720-phosphate in all blood samples [7]: exclusively the pharmacologically active S-enantiomer
